“Also recorded” adds a separate entry of the source.
Experiments:
hKV1.1 = type: cell-based, human; conditions: CHO cells
Text: (§1) We, therefore, aimed at testing the pharmacological activity of sCm39 on a battery of various potassium and sodium ion channels. Among the tested channels were six members of human voltage-gated K^+ (hKV) channels from Shaker family, hKV1.1-hKV1.6 (Figure 3A–F) and three members of Ca^2+-activated potassium channel; hKCa2.2 (SK2, Figure 3I), the small-conductance Ca^2+-activated channel; hKCa3.1 (IKCa1, SK4. Figure 3J), the intermediate-conductance Ca^2+-activated channel expressed in T lymphocytes; and mKCa1.1 (BK, Slo1, MaxiK, Figure 3H), the large-conductance voltage- and Ca^2+-activated channel of mice. In addition, we also screened the effect of Cm39 on hKV11.1 (hERG1, Figure 3G), a voltage-gated cardiac K^+ channel, and two human voltage-gated sodium (hNaV) channels, hNaV1.4 (Figure 3K) and hNaV1.5 (Figure 3L), expressed in skeletal and cardiac muscles, respectively. These ion channels were heterologously expressed in the CHO or HEK cell lines except for KV1.3. Human peripheral T lymphocytes. They were stimulated with Phytohemagglutinin A (PHA) to increase the KV1.3 channel expression, and Ca^2+-free intracellular solution was used to avoid KCa3.1 channel activation. Appropriate depolarization protocols were used to record ionic currents in voltage-clamped cells (see Figure 3 insets and Material and Methods for details). Freshly dissolved sCm39 in extracellular solution was applied at 1 µM concentration on the cell using a custom-built micro-perfusion system at ~200 µL/min flow rate.
(§2) Chinese hamster ovary (CHO) cells (gift from Yosef Yarden, Weizmann Institute of Science, Rehovot, Israel) were maintained by culturing in Dulbecco’s modified Eagle medium (DMEM, Gibco) supplemented with 2 mM L-glutamine, 10% FBS, 100 µg/mL streptomycin and 100 U/mL penicillin-g (Sigma-Aldrich) at a density of 0. 5−1×10^6 cells per mL in a humidified incubator at 37 °C and 5% CO2. Cells were passaged 3 times in a week following a 2–5 min incubation in 0.05% trypsin-EDTA solution at 37 °C. Cultures were used up to passage number 20. PCR-based tests were routinely used to detect mycoplasma infection, only mycoplasma-free cultures were used for experiments.
(§3) Those plasmids which lack a fluorescent tag were co-transfected with a plasmid encoding GFP. Transfections were performed at a GFP:channel DNA molar ratio of 1:10 using the Lipofectamine 2000 kit (Invitrogen) according to the manufacturer’s protocol. […] Generally, currents were recorded 24 to 48 h post transfection.
(§4) For the measurement of KV1.x, mKCa1.1 and NaV1.x currents the extracellular solution was composed of (in mM) 145 NaCl, 5 KCl, 2.5 CaCl2, 1 MgCl2, 10 HEPES and 5.5 glucose, pH 7.35. In the HK-150 and Na^+-free bath solution bath all Na^+ was substituted by K^+ or Choline-Cl, respectively, other ingredients remained unchanged. In the various TEA^+-containing solutions, Na^+ was substituted by tetraethylammonium-Cl in equimolar concentration (Figure 3). The bath solution for KCa2.2 and KCa3.1 consisted of (in mM) 145 L-Aspartic Na^+ salt, 5 KCl, 2.5 CaCl2, 1 MgCl2, 5.5 glucose and 10 HEPES, pH 7.4 and for KV11.1 (in mM) 140 Choline-Cl, 5 KCl, 2 MgCl2, 2 CaCl2, 10 HEPES, 20 glucose and 0.1 CdCl2, pH 7.35. The osmolarity of bath solutions was ranging between 302 to 308 mOsm/L. A total of 0.1 mg/mL bovine serum albumin (BSA, Sigma-Aldrich, Budapest, Hungary) was added to all the bath solutions before the patch-clamp assay to avoid toxin adsorption to the plastic surfaces of the perfusion system. Internal or pipette solution for recording KV1.x and mKCa1.1 currents consisted of (in mM) 140 KF, 2 MgCl2, 1 CaCl2, 11 EGTA and 10 HEPES, pH 7.22.

hKV1.6 = type: cell-based, human; conditions: CHO cells
Text: as §1, §2, §3, §4

hKV1.2 = molecular target: T1, hKV1.2 (Homo sapiens, UniProt P16389); test: Whole-cell patch-clamp, block of KV1.2 current; type: cell-based
T1 construct: GFP (vector pCMV6-AC-GFP); host or cells: CHO cells, transient transfection
T1 sequence (P16389 whole entry): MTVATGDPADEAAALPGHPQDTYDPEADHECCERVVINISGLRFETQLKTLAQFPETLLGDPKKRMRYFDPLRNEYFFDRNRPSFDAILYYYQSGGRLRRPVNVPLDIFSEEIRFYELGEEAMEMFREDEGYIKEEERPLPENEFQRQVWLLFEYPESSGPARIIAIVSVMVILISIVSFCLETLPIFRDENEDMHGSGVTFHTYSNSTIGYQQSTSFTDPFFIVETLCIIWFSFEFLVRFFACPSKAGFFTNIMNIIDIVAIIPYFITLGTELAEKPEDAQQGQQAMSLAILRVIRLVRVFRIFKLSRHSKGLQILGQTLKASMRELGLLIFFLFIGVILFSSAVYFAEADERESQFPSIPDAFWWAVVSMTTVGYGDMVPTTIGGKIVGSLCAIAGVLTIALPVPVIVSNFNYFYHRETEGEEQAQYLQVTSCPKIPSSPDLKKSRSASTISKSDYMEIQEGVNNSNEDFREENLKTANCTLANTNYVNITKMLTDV
Text: as §1
For comprehensive characterization of Cm39 activity on KV1.2, we determined the concentration–response of current inhibition by Cm39, the kinetic parameters of its binding and assessed the effect on voltage dependence of steady-state activation. The whole-cell KV1.2 currents were recorded in CHO cells using depolarization pulses to +50mV from −120mV holding potential (Vh) every 15 s. Since the activation kinetics of KV1.2 are highly variable, the duration of pulses was set on a cell-by-cell basis between 15–300 ms to allocate sufficient time for reaching maximum currents at the test potentials. […] The remaining current fractions (RCF = I/I0, where I0 is the peak current in the absence of the toxin, and I is the peak current at equilibrium block in the presence of sCm39 at a given concentration) were calculated and plotted as a function of toxin concentration.
Single-exponential decay functions were fitted to the normalized peak currents in the presence of each sCm39 concentration (Figure 4C, data points in red shades) to determine the time constant for the onset of block (τon, wash-in or association time constant). The dissociation time constant for the relief from block (τoff, wash-out time constant) was obtained by fitting a single-exponential rising function to the normalized peak currents in the wash-out procedure (Figure 4C, data point in black empty circles). Assuming a simple bimolecular interaction between the toxin and the channel, time constants for the onset and recovery from the block can be stated as follows:(1) τon=1/kon×[toxin]+koff , τoff=1/koff where kon represents the second-order association rate constant, koff indicates the first-order dissociation rate constant and [toxin] is the sCm39 concentration. […] The second-order rate constant of association (kon) was determined by fitting the 1/τon data points using linear regression with koff as the y-intercept.

## CC[C@H](C)[C@@H]1NC(=O)[C@H](C)NC(=O)[C@H](C)NC(=O)[C@H](CCCCN)NC(=O)[C@@H]2CSSC[C@@H](C(=O)N[C@@H](Cc3ccc(O)cc3)C(=O)N[C@@H](Cc3ccc(O)cc3)C(=O)O)NC(=O)[C@H](CCCCN)NC(=O)[C@@H]3CSSC[C@H](NC(=O)[C@H](CCC(=O)O)NC(=O)[C@H](CO)NC(=O)[C@H](CO)NC(=O)[C@H](CO)NC(=O)[C@H](CCCCN)NC(=O)[C@@H](NC(=O)[C@H](CCCCN)NC(=O)[C@H](Cc4c[nH]cn4)NC(=O)[C@H](CC(N)=O)NC(=O)[C@@H](NC(=O)[C@H](Cc4ccccc4)NC(=O)[C@@H](N)[C@@H](C)O)[C@@H](C)CC)CSSC[C@H](NC(=O)[C@H](CCCCN)NC(=O)CNC(=O)[C@H](CO)NC(=O)[C@H](C)NC(=O)[C@H](CCCNC(=N)N)NC(=O)CNC1=O)C(=O)N[C@@H]([C@@H](C)CC)C(=O)N[C@@H](CC(N)=O)C(=O)N[C@@H](CO)C(=O)N[C@@H]([C@@H](C)O)C(=O)N3)C(=O)N[C@@H](CC(C)C)C(=O)N1CCC[C@H]1C(=O)N[C@@H](C)C(=O)N2 [Cm39]
hKV1.1; 1 μM
  inhibition (in words): does not inhibit; also recorded: did not show any effect
hKV1.1; 1 µM, 3−5 min, n = 3−5
  decrease in current: < 3%
hKV1.6; 1 μM
  inhibition (in words): does not inhibit; also recorded: did not show any effect
hKV1.6; 1 µM, 3−5 min, n = 3−5
  decrease in current: < 3%
hKV1.2; 5 nM, CHO cells, pulses to +50 mV, read-out: inhibition of KV1.2 current at equilibrium block
  inhibition at 0.005 µM: ~5%
hKV1.2; 20 nM, CHO cells, pulses to +50 mV, read-out: inhibition of KV1.2 current at equilibrium block
  inhibition at 0.02 µM: ~22%
hKV1.2; 50 nM, CHO cells, pulses to +50 mV, read-out: inhibition of KV1.2 current at equilibrium block
  inhibition at 0.05 µM: ~43%
hKV1.2; 100 nM, CHO cells, pulses to +50 mV, read-out: inhibition of KV1.2 current at equilibrium block
  inhibition at 0.1 µM: ~62%
hKV1.2; 250 nM, CHO cells, pulses to +50 mV, read-out: inhibition of KV1.2 current at equilibrium block
  inhibition at 0.25 µM: ~78%
hKV1.2; 500 nM, CHO cells, pulses to +50 mV, read-out: inhibition of KV1.2 current at equilibrium block
  inhibition at 0.5 µM: ~87%
hKV1.2; 1 µM, CHO cells, n = 3−5 (Figure 3M)
  reduction of current at equilibrium block: 95%
hKV1.2; 5−500 nM
  toxin association and dissociation kinetics: fast
hKV1.2; 5−500 nM, listed as sCm39
  toxin association and dissociation kinetics: very fast
hKV1.2; KV1.2 over KV1.3
  selectivity for KV1.2 over KV1.3: > 15 fold
hKV1.2; concentration-response of KV1.2 block, CHO cells
  Hill coefficient: 0.96
hKV1.2; slope of linear regression of 1/τon vs concentration, r^2 = 0.97, CHO cells, read-out: second-order association rate constant kon
  kon: 215000 M⁻¹ s⁻¹
hKV1.2; wash-out with toxin-free solution, 5−500 nM
  reversibility of KV1.2 block: fully reversible
hKV1.2; wash-out, single-exponential fit, CHO cells, simple bimolecular interaction assumed, read-out: dissociation rate constant koff (1/τoff)
  koff: 0.019 ± 0.0013 s⁻¹
